From ChEMBL document CHEMBL4680317, “In vitro and in vivo effects of inhibitors on actin and myosin” (Bioorg Med Chem, 2021) come the findings set out here.

Molecules are shown by their SMILES. Activity calls are given as the source filed them. No cut-off for these calls is given here.

The species named for series [1] is Oryctolagus cuniculus. Briefly: Inhibition of rabbit muscle G-actin polymerization assessed as polymerized G-actin level at 25 uM incubated for 15 mins by spectrophotometric analysis (reference value: 100 %). The format is tissue-based. Details: scale not given: the % may be the effect or the level left. Conditions: Muscle tissue.
Series [2] concerns MDA-MB-231. Briefly: Antimigratory activity against human MDA-MB-231 cells assessed as cell migration at 5 uM by light microscopy relative to control. The format is functional.
Series [3] has as its system MDA-MB-231. In words: Antimigratory activity against human MDA-MB-231 cells assessed as minimum effective concentration by light microscopy. The class given is functional.
The nature of series [4]: Cardiotoxicity in medaka embryo post hatching 24 hrs assessed as reduction in heart beat at 17.5 uM measured after 1 hr. The format is toxicity. Conditions: oryzias latipes.
Series [5] is described as follows: Cardiotoxicity in medaka embryo post hatching 24 hrs assessed as reduction in heart beat at 10 uM measured after 1 hr. The class given is toxicity. Conditions: oryzias latipes.
For series [6], the species on record is Oryctolagus cuniculus. In words: Inhibition of rabbit muscle F-actin depolymerization at 50 to 100 uM incubated for 15 mins by spectrophotometric analysis. Conditions: Muscle tissue, dose 50-100 µM. The class given is tissue-based.
Series [7] deals with MDA-MB-231. Briefly: Induction of cell morphological changes in human MDA-MB-231 cells assessed as membrane blebbing at 2 uM measured after 30 mins by inverted microscopy. The class given is functional, cell-based.
For series [8], the system named is MDA-MB-231. Briefly: Antimigratory activity against human MDA-MB-231 cells assessed as cell migration at 10 uM by light microscopy relative to control. The format is functional.
Series [9] deals with MDA-MB-231. Briefly: Induction of cell morphological changes in human MDA-MB-231 cells assessed as membrane blebbing at 500 nM measured after 40 sec by inverted microscopy. The class given is functional, cell-based.
Series [10] deals with MDA-MB-231. Briefly: Cytotoxicity against human MDA-MB-231 cells assessed as reduction in cell viability incubated for 4 hrs by neutral red uptake assay. Conditions: mda-mb-231, 4 h. The format is cell-based.
For series [11], the system named is MDA-MB-231. Briefly: Induction of cell morphological changes in human MDA-MB-231 cells assessed as membrane blebbing by inverted microscopy. The format is functional, cell-based.
Series [12] can be described thus: Cardiotoxicity in medaka embryo post hatching 24 hrs assessed as reduction in heart beat at 25 uM measured after 1 hr. The format is toxicity. Conditions: oryzias latipes.
The subject of series [13] is MDA-MB-231. Briefly: Antimigratory activity against human MDA-MB-231 cells assessed as cell migration at 2.5 uM by light microscopy relative to control. The class given is functional.
The species entered for series [14] is Oryctolagus cuniculus. Briefly: Inhibition of rabbit muscle F-actin depolymerization incubated for 15 mins by spectrophotometric analysis. Conditions: Muscle tissue, dose 25-100 µM. The format is tissue-based.
For series [15], the system named is MDA-MB-231. Briefly: Antimigratory activity against human MDA-MB-231 cells assessed as cell migration by light microscopy. The class given is functional, cell-based.
Series [16] in a line: Cardiotoxicity in medaka embryo post hatching 24 hrs assessed as reduction in heart beat at 1.25 uM measured after 1 hr. The class given is toxicity. Conditions: oryzias latipes.
For series [17], the target named is Myosin light chain kinase 2, skeletal/cardiac muscle (Oryctolagus cuniculus) (UniProt P07313). Briefly: Inhibition of rabbit skeletal muscle myosin-2 ATPase incubated for 20 mins followed by ATP addition and measured after 20 mins. Conditions: Skeletal muscle tissue, time 40.0 min. The class given is tissue-based.
Chain of Myosin light chain kinase 2, skeletal/cardiac muscle (Oryctolagus cuniculus) (P07313 whole entry): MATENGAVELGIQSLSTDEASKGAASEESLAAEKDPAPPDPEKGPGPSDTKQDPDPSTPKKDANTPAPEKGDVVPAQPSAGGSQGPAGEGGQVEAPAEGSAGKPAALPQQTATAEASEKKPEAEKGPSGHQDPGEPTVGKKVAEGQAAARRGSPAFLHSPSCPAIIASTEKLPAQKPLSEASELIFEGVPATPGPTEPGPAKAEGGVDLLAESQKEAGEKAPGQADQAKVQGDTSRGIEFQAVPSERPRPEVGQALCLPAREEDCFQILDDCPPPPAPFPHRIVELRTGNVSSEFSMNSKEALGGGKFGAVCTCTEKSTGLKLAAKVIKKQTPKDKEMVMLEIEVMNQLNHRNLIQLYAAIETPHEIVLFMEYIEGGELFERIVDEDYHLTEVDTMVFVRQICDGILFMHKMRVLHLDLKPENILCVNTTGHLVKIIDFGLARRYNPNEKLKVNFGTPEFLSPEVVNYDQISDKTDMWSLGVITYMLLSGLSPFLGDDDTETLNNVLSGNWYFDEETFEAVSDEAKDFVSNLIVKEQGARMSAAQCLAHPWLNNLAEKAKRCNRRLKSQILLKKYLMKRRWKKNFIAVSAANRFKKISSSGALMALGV

On to `Cc1ccc2c(c1)C(=O)[C@]1(O)CCN(c3ccccc3)C1=N2`, for which the Activity in the series listed under Oryctolagus cuniculus [1] is 78.7%; with MDA-MB-231 [2], 136.6%; in series [4] it was “Non-Toxic”; in [5] it was “Toxic”. The LED in the series with MDA-MB-231 [3] came out at 5 µM. For the same molecule, the inhibition result in the series listed under Oryctolagus cuniculus [6] was “Active”. Also, the result in the series on MDA-MB-231 [7] was inactive.

For `C=C1[C@@H](C)[C@H]2[C@H](Cc3ccccc3)NC(=O)[C@]23OC(=O)/C=C/[C@H](O)CCC[C@@H](C)C/C=C/[C@H]3[C@@H]1O` [CYTOCHALASIN B], the Activity in the series filed under Oryctolagus cuniculus [1] is 43.5%; in the series with MDA-MB-231 [8], 8.2%; with MDA-MB-231 [10], “Toxic”; in series [5], “Non-Toxic”. The result with MDA-MB-231 [9] was Active. Besides, the inhibition result in the series filed under Oryctolagus cuniculus [6] was “Active”.

Regarding `Oc1cc(O)c2c(c1)O[C@H](c1cc(O)c(O)c(O)c1)[C@H](O)C2` [EPIGALLOCATECHIN], the Activity in the series filed under Oryctolagus cuniculus [1] is 118%; in [12], “Non-Toxic”. Further, the outcome in the series on MDA-MB-231 [11] and in the series on MDA-MB-231 [13] was inactive.

Take `O=c1c(O)c(-c2ccc(O)cc2)oc2cc(O)cc(O)c12` [KAEMPFEROL]: the inhibition result in the series filed under Oryctolagus cuniculus [14] was “Dose-dependent effect”. In addition, the Activity was 71.8% in the series filed under Oryctolagus cuniculus [1], “Non-Toxic” in [12] and 70% in the series on MDA-MB-231 [13]. Besides, the LED in the series on MDA-MB-231 [3] was found to be 2.5 µM. The result in the series on MDA-MB-231 [11] was inactive.

For `Oc1c(Br)cc(Br)cc1-c1[nH]c(Br)c(Br)c1Br` [PENTABROMOPSEUDILIN], in the series with MDA-MB-231 [15], the inhibition entry is “Dose-dependent effect”. Further, the Activity was 104% in the series filed under Oryctolagus cuniculus [1], “Toxic” with MDA-MB-231 [10], 67% in the series on MDA-MB-231 [13] and “Toxic” in series [16]. Moreover, the LED with MDA-MB-231 [3] amounted to 1 µM. Moreover, the outcome in the series on MDA-MB-231 [11] was inactive.

As for `Oc1c(Cl)cc(Cl)cc1-c1[nH]c(Cl)c(Cl)c1Cl` [PENTACHLOROPSEUDILIN], the inhibition result (in the series with MDA-MB-231 [15]; in series [17]) was “Dose-dependent effect” each time. The Activity in the series filed under Oryctolagus cuniculus [1] is 38.4%; with MDA-MB-231 [10], “Toxic”; with MDA-MB-231 [13] it was 62.6%; in series [16] it was “Toxic”. The LED with MDA-MB-231 [3] was 1 µM.

As for `O=c1c(O)c(-c2ccc(O)c(O)c2)oc2cc(O)cc(O)c12` [QUERCETIN], the inhibition entry in the series listed under Oryctolagus cuniculus [14] is “Dose-dependent effect”. Moreover, the Activity in the series filed under Oryctolagus cuniculus [1] was 74.5%; in [12] it was “Non-Toxic”. Also, the outcome in the series on MDA-MB-231 [11] and in the series on MDA-MB-231 [13] was inactive.
